Data from patent publication US20230365639A1, “DEFENSIN FRAGMENT DERIVED LIPOPEPTIDES FOR TREATMENT OF DRUG-RESISTANT MICROORGANISMS” (priority 2020, published 2023).

Assays:
[1] = tested on: several pathogenic bacteria; experiment: Radial diffusion assay and MIC screening for antimicrobial activity; assay type: cell-based; details: radial diffusion assay and MIC determinations
Description: Methods: Log-phase bacteria were cultivated for up to 18 hours in TSB (TSB, Becton Dickinson, USA), washed and diluted to 4×10^6 CFU in 10 ml agar. Bacteria were incubated in 10 ml of 10 mM sodium phosphate, pH 7.4, containing 0.3 mg/ml of TSB powder and 1% (w/v) low EEO-agarose (AppliChem). Lipopeptides were pipetted into punched wells and diffused into the gel for 3 hours at 37° C. After that, a nutrient-rich gel with 6% TSB (w/v) and 1% agarose in 10 mM sodium phosphate buffer was poured on top of the first gel and incubated for up to 24 hours at 37° C. Then the diameter of inhibition zones was measured.
Clinical isolates of A. baumannii DSM30007, E. faecium DSM2918, K. pneumoniae DSM30104 and P. aeruginosa DSM1117 were provided by the Department for Laboratory Medicine at Robert-Bosch-Hospital Stuttgart, Germany. C. rodentium DSM16636 and E. coli DSM8695 were obtained from the Deutsche Sammlung von Mikroorganismen and Zellkultur GmbH Braunschweig, Germany. […]

C. albicans = experiment: Broth microdilution assay, antifungal activity; assay type: cell-based
Description: (§1) Methods: Broth microdilution assay. Candida was cultured in TSB over night at 37° C., centrifuged (1500 rpm, 10 min, RT) and washed twice with 10 mM sodium phosphate buffer containing 1% (w/v) TSB. Candida cells were counted and approximately 5×10^5 CFU/ml fungi were incubated with serial peptide concentrations (1.17-150 μM) in a final volume of 100 μl in 10 mM sodium phosphate buffer containing 1% (w/v) TSB for 2 hours at 37° C. After incubation, 100 μl of 6% TSB (w/v) was added and absorbance was measured at 600 nm (Tecan, Switzerland) and monitored for 18 hours. Afterwards, 100 μl per well was plated on YPD agar to determine the number of viable bacteria microbiologically.

C. tropicalis = experiment: Broth microdilution assay, antifungal activity; assay type: cell-based
Description: as §1

[2] = tested on: C. rodentium strain ICC180; experiment: Established gastrointestinal infection caused by C. rodentium; assay type: in vivo, mice; details: two doses of 250 μg orally 5 days post infection; content or tissue not specified
Description: All mice were euthanized by asphyxiation with CO2 at indicated time points. Intestinal tissues (small intestine, cecum, colon) were removed aseptically. To collect intestinal content, organs were flushed with PBS. Organs were opened longitudinally, cleaned thoroughly with PBS and weighted. Organs and content were homogenized in PBS using a Polytron homogenizer (Kinemtatica). Dilutions of homogenized samples were plated on LB plates containing 50 μg/ml kanamycin to determine CFUs.
Methods: Citrobacter rodentium infection. Bioluminescence expressing C. rodentium strain ICC180 was used for all infection experiments (Wiles et al., 2004). C. rodentium inoculae were prepared by culturing bacteria overnight at 37° C. in LB broth with 50 μg/mI kanamycin. Subsequently, the culture was diluted 1:100 in fresh medium, and sub-cultured for 4 hours at 37° C. in LB broth (Thiemann et al., 2017). Bacteria were washed twice in phosphate-buffered saline (PBS). Mice were orally inoculated with 10^8 CFU of C. rodentium diluted in 200 μl PBS. Weight of the mice was monitored and feces was collected for measurements of the pathogen burden. 5 days post infection mice received twice 250 μg peptide solved in 100 μl PBS or only PBS orally. The following day, mice were sacrificed to assess bacterial burden in the lumen and tissues of the cecum and the colon. […]

[3] = Acute tolerability after oral administration; assay type: in vivo, C57BL/6N mice
From the text: Methods: C57BL/6N mice were generated and maintained (including breeding and housing) at the animal facilities of the Helmholtz Centre for Infection Research (HZI) under enhanced specific pathogen-free (SPF) conditions (Stehr et al., 2009). Animals used in the experiments were gender and age matched. Female and male mice with an age of 8-12 weeks were used. Sterilized food and water ad libitum were provided. Mice were kept under a strict 12-hour light cycle (lights on at 7:00 am and off at […]) and housed in groups of two to six mice per cage. All mice were euthanized by asphyxiation with CO2 and cervical dislocation. All animal experiments were performed in agreement with the local government of Lower Saxony, Germany (approved permission No. 33.19-42502-04-18/2499).
Age- and gender-matched mice received two doses of peptides (0, 125 μg or 250 μg) solved in 100 μl PBS orally per day. Bodyweight and appearance were recorded. The following day, mice were sacrificed and stomach, kidney, spleen, liver, small intestine, cecum and colon were removed for histological scoring. Around 1 ml of blood was taken from the heart to measure inflammatory markers including creatinine in the kidney and the enzyme levels of glutamate-oxalacetate-transaminase (GOT) in the liver.

In the case of Pam2-Glc-Suc-RGKAKCCK [Pam-1], the “antimicrobial activity, inhibition of bacterial growth of the tested strains” value [1] is reported as “generally inactive”, the “antifungal activity against C. albicans” value (C. albicans) is reported as “no antifungal activity” and the “antifungal activity against C. tropicalis” value (C. tropicalis) is reported as “no antifungal activity”. The “CFU's of C. rodentium in cecum” value [2] was “did not reduce”, the “CFU's of C. rodentium in colon” value [2] was “did not reduce” and the “histological examination of gastrointestinal, liver and kidney tissues” value ([3]; mouse, in vivo, po) was “no alterations”. The “serum level of creatinine” value ([3]; mouse, in vivo, po) was “no significant differences between the groups”, the “serum level of glutamic oxaloacetic transaminase (GOT)” value ([3]; mouse, in vivo, po) was “no significant differences between the groups” and the “acute toxicity (histological analysis and serum markers)” value ([3]; oral, mice, 24 hours after application, 125 or 250 μg doses) was “did not reveal any acute toxicity”.
